How the values were obtained:
[1] = biological target: Muscarinic acetylcholine receptor
[2] = biological target: T1, Muscarinic acetylcholine receptor M1 (Homo sapiens, UniProt P11229)
T1 sequence (P11229 whole entry): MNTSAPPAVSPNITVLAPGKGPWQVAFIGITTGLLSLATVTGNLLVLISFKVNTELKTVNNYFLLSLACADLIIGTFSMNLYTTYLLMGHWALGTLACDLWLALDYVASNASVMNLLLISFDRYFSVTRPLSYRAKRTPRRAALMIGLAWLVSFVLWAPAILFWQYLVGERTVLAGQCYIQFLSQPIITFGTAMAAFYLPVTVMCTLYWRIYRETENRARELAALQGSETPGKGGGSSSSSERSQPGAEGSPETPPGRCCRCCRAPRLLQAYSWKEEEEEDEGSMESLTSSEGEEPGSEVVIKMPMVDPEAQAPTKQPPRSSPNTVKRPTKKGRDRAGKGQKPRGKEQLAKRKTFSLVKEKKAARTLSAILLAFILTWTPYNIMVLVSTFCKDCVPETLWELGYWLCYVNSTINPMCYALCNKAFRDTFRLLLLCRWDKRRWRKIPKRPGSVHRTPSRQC
Description: Stimulation of phosphoinositide hydrolysis in A9L cells expressing human m1 receptor

[3] = biological target: T2, Muscarinic acetylcholine receptor M2 (Homo sapiens, UniProt P08172)
T2 sequence (P08172 whole entry): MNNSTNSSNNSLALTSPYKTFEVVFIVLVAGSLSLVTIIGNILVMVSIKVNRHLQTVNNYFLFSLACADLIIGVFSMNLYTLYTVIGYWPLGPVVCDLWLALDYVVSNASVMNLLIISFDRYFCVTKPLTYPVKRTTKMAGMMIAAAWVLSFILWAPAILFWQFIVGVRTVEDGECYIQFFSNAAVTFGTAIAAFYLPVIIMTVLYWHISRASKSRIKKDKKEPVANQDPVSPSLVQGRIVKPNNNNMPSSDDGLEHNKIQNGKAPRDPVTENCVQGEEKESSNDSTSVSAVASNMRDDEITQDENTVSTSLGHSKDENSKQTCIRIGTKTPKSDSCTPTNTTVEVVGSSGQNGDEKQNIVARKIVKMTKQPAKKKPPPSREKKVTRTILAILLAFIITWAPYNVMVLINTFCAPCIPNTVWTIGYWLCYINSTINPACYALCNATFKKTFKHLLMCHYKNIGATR
Description: Stimulation of cAMP in CHO cells expressing human m2 receptor

[4] = Potency ratio of EC50 of the CHO cell lines to that of A9L cell lines was calculated; format: functional
[5] = biological target: T3, Muscarinic acetylcholine receptor M1 (Homo sapiens) (UniProt P11229); experiment: Stimulation of phosphoinositide hydrolysis in BHK cells; format: functional, cell-based
T3 sequence (whole entry): T1 sequence (P11229 whole entry)

[6] = biological target: Muscarinic acetylcholine receptor; experiment: Binding affinity against muscarinic receptor in rat brain membranes using oxotremorine-M as ligand; format: cell membranes
[7] = biological target: T1, Muscarinic acetylcholine receptor M1; experiment: Effective concentration required for stimulation of phosphoinositide hydrolysis in A9L cells expressing human m1 receptor; format: functional, cell-based

SMILES | IC50 [1] | EC50 [3] | further results
CCOc1nsnc1C1=CCCN(C)C1 | 5.7 nM | – | –
C(#Cc1ccccc1)COc1nsnc1C12CN3CC1C2C3 | 14 nM | 779 nM | EC50 [2]: 70.5 nM
CCCCCCCOc1nsnc1C1=CCCN(C)C1 | 6.2 nM | – | –
CN1CCC=C(c2nsnc2OCCCCc2ccccc2)C1 | 20 nM | – | –
CCCCCOc1nsnc1C1=CCCN(C)C1 | 2 nM | – | –
C(#Cc1ccccc1)CSc1nsnc1[C@@H]1CN2CC[C@H]1C2 | 42 nM | 139 nM | EC50 [2]: > 100 nM
CN1CCC=C(c2nsnc2SCCc2ccccc2)C1 | 23 nM | – | –
CCCOc1nsnc1C1=CCCN(C)C1 | 1.6 nM | – | –
CN1CCC=C(c2nsnc2OCC#Cc2ccccc2)C1 | 8.5 nM | 240 nM | EC50 [2]: 110 nM; Potency ratio [4]: 2
CCCCCCOc1nsnc1[C@@H]1CN2CC[C@H]1C2 (stereo in doubt; 26) | 6 nM | – | –
C(#Cc1ccccc1)COc1nsnc1[C@H]1CN2CCC[C@@H]1C2 | 78 nM | 2250 nM | –
COc1cccc(C#CCO/N=C2\CN3CCC2C3)c1 (stereo not given) | 167 nM | 28000 nM | EC50 [2]: > 1000 nM; Max PI [5]: 14%
C(#Cc1ccccc1)COc1nsnc1C1CN2CCC1CC2 (stereo not given) | 4.7 nM | 62 nM | EC50 [2]: 15.7 nM
COc1nsnc1C1=CCCN(C)C1 | 22 nM | – | –
c1ccc(CCCSc2nsnc2[C@H]2CN3CC[C@H]2C3)cc1 | 1.7 nM | – | –
CCCCCCOc1nsnc1[C@H]1CN2CCC[C@H]1C2 | 1.2 nM | – | –
C(#Cc1ccccc1)COc1nsnc1[C@@H]1CN2CCC[C@@H]1C2 | – | 29 nM | IC50 [6]: 3.4 nM
CCCCCCOc1nsnc1[C@@H]1CN2CC[C@H]1C2 (stereo in doubt; 13) | 16 nM | – | –
CN1CCC=C(c2nsnc2OCCCc2ccccc2)C1 | 13 nM | – | –

SMILES | IC50 [1] | EC50 [3] | further results
C(#Cc1ccccc1)COc1nsnc1[C@H]1CN2CC[C@@H]1C2 | 41 nM | 1080 nM | EC50 [2]: 159 nM
C(#Cc1ccccc1)COc1nsnc1[C@@H]1CN2CC[C@H]1C2 | 20 nM | 1100 nM | EC50 [2]: 67.3 nM
CCCCCCOc1nsnc1C1CN2CCC1CC2 (stereo not given) | 4.3 nM | – | –
CN1CCC=C(c2nsnc2SCc2ccccc2)C1 | 5.9 nM | – | –
c1ccc(CCCSc2nsnc2[C@H]2CN3CCC[C@H]2C3)cc1 | 1.3 nM | – | –
CN1CCC=C(c2nsnc2SCCCc2ccccc2)C1 | 1.3 nM | – | –
c1ccc(CCCSc2nsnc2C2CN3CCC2CC3)cc1 (stereo not given) | 14 nM | – | –
CCCCCCCCOc1nsnc1C1=CCCN(C)C1 | 30 nM | – | –
CN1CCC=C(c2nsnc2OCc2ccccc2)C1 | 8 nM | – | –
CCCCCCOc1nsnc1[C@H]1CN2CC[C@H]1C2 | 0.73 nM | – | –
CN1CCC=C(c2nsnc2OCCc2ccccc2)C1 | 15 nM | – | –
C(#Cc1ccccc1)COc1nsnc1[C@H]1CN2CCC1C2 (stereo not given in full) | 0.8 nM | 11 nM | EC50 [2]: 0.99 nM
c1ccc(CCCSc2nsnc2[C@@H]2CN3CCC[C@H]2C3)cc1 | 35 nM | – | –
C(#Cc1ccccc1)CSc1nsnc1[C@H]1CN2CCC[C@H]1C2 | 1.7 nM | 2 nM | EC50 [7]: 0.2 nM
CCCCCCOc1nsnc1[C@@H]1CN2CCC[C@H]1C2 | 63 nM | – | –
C(#Cc1ccccc1)COc1nsnc1[C@@H]1CN2CCC[C@H]1C2 | 66 nM | 227 nM | EC50 [2]: 28.3 nM
C(#Cc1ccccc1)CSc1nsnc1[C@@H]1CN2CCC[C@H]1C2 | 363 nM | > 10000 nM | EC50 [2]: 1 nM
C(#Cc1ccccc1)COc1nsnc1[C@H]1CN2CCC[C@H]1C2 | 1.2 nM | 9 nM | EC50 [2]: 0.5 nM
